{"source": "patent US9540336B2", "about": "“Therapeutic agents” (priority 2011, dated 2017)", "key": {"[1]": {"test_system": "Enterococcus faecalis", "test": "Antimicrobial activity (MIC)", "format": "cell-based"}, "[2]": {"test_system": "P. denitrificans membranes", "test": "Restoration of NADH oxidation and ROS production, P. denitrificans membranes", "format": "biochemical, Paracoccus denitrificans"}, "[3]": {"molecular_target": "recombinant M. tuberculosis NDH-2 (Mycobacterium tuberculosis, UniProt P95160)", "sequence (P95160 whole entry, looked up)": "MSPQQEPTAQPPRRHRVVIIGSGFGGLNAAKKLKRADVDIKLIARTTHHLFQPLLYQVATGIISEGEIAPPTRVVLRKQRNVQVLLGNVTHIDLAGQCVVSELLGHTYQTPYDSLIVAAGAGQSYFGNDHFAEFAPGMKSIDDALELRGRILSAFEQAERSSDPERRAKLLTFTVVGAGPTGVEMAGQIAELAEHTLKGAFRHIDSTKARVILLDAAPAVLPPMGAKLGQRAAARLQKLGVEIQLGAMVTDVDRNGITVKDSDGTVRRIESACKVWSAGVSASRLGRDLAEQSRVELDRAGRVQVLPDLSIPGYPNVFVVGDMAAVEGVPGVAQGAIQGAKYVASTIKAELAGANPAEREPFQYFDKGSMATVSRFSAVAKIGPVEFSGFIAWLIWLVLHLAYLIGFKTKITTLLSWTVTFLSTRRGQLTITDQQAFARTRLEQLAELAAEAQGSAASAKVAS", "format": "biochemical"}, "[4]": {"test_system": "rat mitochondria", "test": "Restoration of NADH oxidation, rat mitochondria", "format": "biochemical", "conditions": "KCN-inhibited rat mitochondria"}, "[5]": {"test_system": "Enterococcus faecium", "test": "Antimicrobial activity (MIC)", "format": "cell-based"}, "[6]": {"test_system": "P. aeruginosa membranes", "test": "Restoration of NADH oxidation and ROS production, P. aeruginosa membranes", "format": "biochemical, Pseudomonas aeruginosa"}, "[7]": {"test": "Solubility in buffered water as a function of pH (centrifugation, spectroscopy)", "format": "physicochemical"}, "[8]": {"test": "Solubility and cationic/uncharged species in detergents (Triton X-100, Na-lauroyl sarcosine)"}, "[9]": {"test_system": "M. smegmatis membranes", "test": "Reduction and reoxidation (redox cycling) with M. smegmatis membranes and NADH", "format": "biochemical"}, "[10]": {"test_system": "S. aureus membranes", "test": "Restoration of NADH oxidation and ROS production, S. aureus membranes", "format": "biochemical, Staphylococcus aureus"}, "[11]": {"test_system": "M. smegmatis membranes", "test": "ROS production by M. smegmatis log-phase membranes (Amplex Red/HRP/superoxide dismutase)", "format": "biochemical"}, "[12]": {"test_system": "M. smegmatis mc2 155", "test": "M. smegmatis growth inhibition (colony counts on 7H9 agar)", "format": "cell-based", "conditions": "for effect of antioxidants (α-tocopherol, 4-hydroxy-TEMPO, N-acetylcysteine) on growth inhibition: 0.5 μg/ml CFZ or 10 μg/ml INH"}, "[13]": {"test_system": "Bacillus thuringiensis", "test": "Antimicrobial activity (MIC)", "format": "cell-based"}, "[14]": {"test_system": "M. smegmatis membranes", "format": "biochemical"}, "[15]": {"test_system": "E. coli membranes", "test": "Restoration of NADH oxidation and ROS production, E. coli membranes", "format": "biochemical"}, "[16]": {"conditions": "cited from earlier work"}, "[17]": {"test_system": "submitochondrial membranes from S. cerevisiae", "test": "Restoration of NADH oxidation and ROS production, S. cerevisiae submitochondrial membranes", "format": "biochemical"}, "[18]": {"test_system": "Staphylococcus aureus MRSA", "test": "Antimicrobial activity (MIC)", "format": "cell-based"}, "[19]": {"test_system": "E. faecalis membranes (NDH-2)", "test": "E. faecalis membranes: NADH-Q0 reductase activity and ROS production", "format": "biochemical"}}, "note": "Where “and” joins values, the source holds several entries; their conditions need not be identical. Equal values may be shown once. Entries after “also recorded” stand apart in the source; their conditions may differ.", "data": [{"smiles": "CC(C)N=c1cc2n(-c3ccc(Cl)cc3)c3ccccc3nc-2cc1Nc1ccc(Cl)cc1", "note": "[CFZ, 3-(4-chloroanilino)-10-(4-chlorophenyl)-2,10-dihydro-2-(isopropylimino)-phenazine]", "values": [{"measurement": "MIC", "setting": "[1]", "result": 10, "unit": "µM"}, {"measurement": "restoration of NADH oxidation", "setting": "[2]; KCN-inhibited P. denitrificans membranes", "result": "did not exhibit significant CFZ-mediated NADH oxidation or ROS production; also recorded: little, if any, restoration of NADH oxidation"}, {"measurement": "ROS production", "setting": "[2]; P. denitrificans membranes", "result": "did not exhibit significant CFZ-mediated NADH oxidation or ROS production"}, {"measurement": "ROS generation with purified NDH-2 and NADH", "setting": "[3]", "result": "generation of ROS"}, {"measurement": "reduction by purified NDH-2", "setting": "[3]; pH 6.5", "result": "purified NDH-2 reduces CFZ"}, {"measurement": "restoration of NADH oxidation", "setting": "[4]", "result": "little, if any, restoration of NADH oxidation"}, {"measurement": "MIC", "setting": "[5]", "result": 10, "unit": "µM"}, {"measurement": "restoration of NADH oxidation", "setting": "[6]; KCN-inhibited P. aeruginosa membranes", "result": "did not exhibit significant CFZ-mediated NADH oxidation or ROS production; also recorded: little, if any, restoration of NADH oxidation"}, {"measurement": "ROS production", "setting": "[6]; P. aeruginosa membranes", "result": "did not exhibit significant CFZ-mediated NADH oxidation or ROS production"}, {"measurement": "fraction of CFZ remaining in solution", "setting": "[7]; 50 mM MOPS/Na+ pH 6.5, 2.0 mM MgCl2, 1.18 μg/ml, 40 min", "result": "~70", "unit": "%"}, {"measurement": "soluble compound in water", "setting": "[7]; above pH 7.5", "result": "not detectable"}, {"measurement": "solubility", "setting": "[7]; buffered water (0.1 M buffer), 23 °C, pH 7, aqueous buffer, kinetic from dmso stock, neutral pH, 50 μM added, overnight, centrifuged", "result": "< 2", "unit": "µM"}, {"measurement": "solubility in water", "setting": "[7]; pH 3.5", "result": "virtually all the drug remained in the supernatant"}, {"measurement": "soluble compound in water", "setting": "[7]; pH 6.5", "result": "barely detectable"}, {"measurement": "fraction of CFZ remaining soluble", "setting": "[7]; reaction buffer pH 6.5, 1.2 μg/ml, 40-min incubation", "result": "About two-thirds"}, {"measurement": "pKa", "setting": "[8]; buffered Triton X-100 detergent solution", "result": 6.8}, {"measurement": "solubility", "setting": "[8]; pH 3.5, aqueous with cosolvent or surfactant or cyclodextrin", "result": "≥ 50", "unit": "µM"}, {"measurement": "solubility", "setting": "[8]; pH 5, aqueous with cosolvent or surfactant or cyclodextrin", "result": "≥ 50", "unit": "µM"}, {"measurement": "observed first order rate constant of reoxidation of reduced CFZ", "setting": "[9]; 0.5% SDS (final) added", "result": "1.40 ± 0.01", "unit": "min⁻¹"}, {"measurement": "reduction on NADH addition with membranes", "setting": "[9]; M. smegmatis membranes, NADH", "result": "marked loss of CFZ absorbance"}, {"measurement": "observed first (pseudo) order rate constant of reoxidation of reduced CFZ", "setting": "[9]; after agitation, no SDS", "result": "1.25 ± 0.01", "unit": "min⁻¹"}, {"measurement": "second order rate constant for reoxidation of reduced CFZ by O2", "setting": "[9]; assuming 250 μM O2", "result": "~100 M⁻¹ s⁻¹ and 83 M⁻¹ s⁻¹"}, {"measurement": "restoration of NADH oxidation", "setting": "[10]; KCN-inhibited S. aureus membranes", "result": "significant restoration of NADH oxidation"}, {"measurement": "ROS production", "setting": "[10]; S. aureus membranes", "result": "able to oxidize NADH and generate ROS"}, {"measurement": "inhibitory effect of high levels on mediated NADH oxidation", "setting": "[10]; S. aureus membranes", "result": "inhibitory"}, {"measurement": "increase of rate of ROS production over background", "setting": "[11]; log-phase membranes, NADH, 0.5 μg CFZ", "result": 11.5, "unit": "fold"}, {"measurement": "ROS (resorufin) production rate relative to rate of NADH consumption / electron transport chain", "setting": "[11]; maximum, 0.1-0.2 μg CFZ/μg membrane protein, no KCN", "result": "~18", "unit": "%"}, {"measurement": "CFZ reduction and ROS production with succinate instead of NADH", "setting": "[11]; succinate as electron donor", "result": "neither CFZ reduction nor ROS production was observed"}, {"measurement": "effect of antioxidants (α-tocopherol, 4-hydroxy-TEMPO, N-acetylcysteine) on growth inhibition", "setting": "[12]", "result": "nullified the growth inhibitory activity; also recorded: prevented"}, {"measurement": "colony formation of M. smegmatis on agar", "setting": "[12]; 0.5 μg/ml CFZ or more, ≧4 days, control 670±100 colonies", "result": "undetectable; also recorded: Virtually no colonies"}, {"measurement": "MIC", "setting": "[13]", "result": 5, "unit": "µM"}, {"measurement": "CFZ-mediated NADH oxidase rate relative to rate in absence of KCN", "setting": "[14]", "result": "25-70%"}, {"measurement": "fraction of NADH oxidase activity restored (maximum)", "setting": "[14]", "result": "0.25 and 0.40-0.70"}, {"measurement": "restoration of NADH oxidation", "setting": "[14]", "result": "restored a significant level of NADH oxidation"}, {"measurement": "ROS production", "setting": "[15]; E. coli membranes", "result": "did not exhibit significant CFZ-mediated NADH oxidation or ROS production"}, {"measurement": "restoration of NADH oxidation", "setting": "[15]; KCN-inhibited E. coli membranes", "result": "did not exhibit significant CFZ-mediated NADH oxidation or ROS production; also recorded: no restoration of NADH oxidation; also recorded: little, if any, restoration of NADH oxidation"}, {"measurement": "redox potential Em, cationic species", "setting": "[16]; Kovacic et al. 1989", "result": "−180", "unit": "mV"}, {"measurement": "redox potential Em, uncharged species", "setting": "[16]; Kovacic et al. 1989", "result": "−950", "unit": "mV"}, {"measurement": "pKa (commonly quoted)", "setting": "[16]; unclear origin", "result": 8.5}, {"measurement": "restoration of NADH oxidation", "setting": "[17]; KCN-inhibited S. cerevisiae submitochondrial membranes", "result": "significant restoration of NADH oxidation"}, {"measurement": "ROS production", "setting": "[17]; S. cerevisiae submitochondrial particles", "result": "able to oxidize NADH and generate ROS"}, {"measurement": "MIC", "setting": "[18]", "result": 2.5, "unit": "µM"}]}, {"smiles": "CN(C)CCCN1c2ccccc2Sc2ccc(Cl)cc21", "note": "[CPZ, chlorpromazin]", "values": [{"measurement": "effect on NADH-Q0 reductase activity (NADH oxidation)", "setting": "[19]; 400 μM CPZ, 0.2 mM NADH, 2 mM Q0", "result": "completely ceased"}, {"measurement": "inhibition of KS6-mediated ROS production", "setting": "[19]; E. faecalis membranes", "result": "complete inhibition"}]}, {"smiles": "NNC(=O)c1ccncc1", "note": "[INH, isoniazid]", "values": [{"measurement": "effect of antioxidants (α-tocopherol, 4-hydroxy-TEMPO, N-acetylcysteine) on growth inhibition", "setting": "[12]", "result": "not altered; also recorded: not sensitive to antioxidants"}, {"measurement": "M. smegmatis growth", "setting": "[12]; 10 μg/ml", "result": "completely inhibited"}]}, {"smiles": "CN1CCN(CCCN2c3ccccc3Sc3ccc(C(F)(F)F)cc32)CC1", "note": "[TPZ, trifluoperazine]", "values": [{"measurement": "effect on ROS formation by purified NDH-2 with CFZ", "setting": "[3]", "result": "inhibited"}, {"measurement": "effect on CFZ-mediated ROS production", "setting": "[11]; TPZ 0.2 mM", "result": "sensitive to TPZ"}, {"measurement": "inhibition of NADH oxidase activity", "setting": "[14]", "result": "inhibited CFZ-mediated NADH oxidase activity"}]}]}
